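Test compounds were applied to cells in 96-well plates for 48 hours at 5 doses. The concentration for 50% growth inhibition is given as GI50. The concentration for full growth arrest is given as TGI.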
Legend:
Test in all cases: NCI tumour cell line growth inhibition, 48 h
SF-295 CNS = tested on: SF-295 CNS
HS 578T breast = tested on: HS 578T breast
RPMI-8226 leukemia = tested on: RPMI-8226 leukemia
HT29 colon = tested on: HT29 colon
MALME-3M melanoma = tested on: MALME-3M melanoma
NCI-H460 lung = tested on: NCI-H460 lung
MDA-MB-231 breast = tested on: MDA-MB-231 breast
LOX IMVI melanoma = tested on: LOX IMVI melanoma
PC-3 prostate = tested on: PC-3 prostate
SNB-75 CNS = tested on: SNB-75 CNS
EKVX NSCLC = tested on: EKVX NSCLC
UACC-62 melanoma = tested on: UACC-62 melanoma
HCC-2998 colon = tested on: HCC-2998 colon
OVCAR-5 ovarian = tested on: OVCAR-5 ovarian
KM12 colon = tested on: KM12 colon
SNB-19 CNS = tested on: SNB-19 CNS
M14 melanoma = tested on: M14 melanoma
TK-10 renal = tested on: TK-10 renal
U251 CNS = tested on: U251 CNS
SF-268 CNS = tested on: SF-268 CNS
CCRF-CEM leukemia = tested on: CCRF-CEM leukemia
ACHN renal = tested on: ACHN renal
SK-MEL-5 melanoma = tested on: SK-MEL-5 melanoma
SF-539 CNS = tested on: SF-539 CNS
NCI-H23 lung = tested on: NCI-H23 lung
MOLT-4 leukemia = tested on: MOLT-4 leukemia
MDA-MB-468 breast = tested on: MDA-MB-468 breast
NCI-H226 lung = tested on: NCI-H226 lung
RXF 393 renal = tested on: RXF 393 renal
A498 renal = tested on: A498 renal
SR leukemia = tested on: SR leukemia
HOP-62 NSCLC = tested on: HOP-62 NSCLC
MDA-MB-435 = tested on: MDA-MB-435
HCT-116 colon = tested on: HCT-116 colon
SK-OV-3 ovarian = tested on: SK-OV-3 ovarian
786-0 renal = tested on: 786-0 renal
HCT-15 colon = tested on: HCT-15 colon
HOP-92 NSCLC = tested on: HOP-92 NSCLC
NCI/ADR-RES ovarian = tested on: NCI/ADR-RES ovarian
IGROV1 ovarian = tested on: IGROV1 ovarian
K-562 leukemia = tested on: K-562 leukemia
DU-145 prostate = tested on: DU-145 prostate
CAKI-1 renal = tested on: CAKI-1 renal
COLO 205 colon = tested on: COLO 205 colon
SN12C renal = tested on: SN12C renal
HL-60(TB) leukemia = tested on: HL-60(TB) leukemia
BT-549 breast = tested on: BT-549 breast
A549 NSCLC = tested on: A549 NSCLC
MCF7 breast = tested on: MCF7 breast
UO-31 renal = tested on: UO-31 renal
T-47D breast = tested on: T-47D breast
OVCAR-3 ovarian = tested on: OVCAR-3 ovarian
SK-MEL-2 melanoma = tested on: SK-MEL-2 melanoma
UACC-257 melanoma = tested on: UACC-257 melanoma
OVCAR-8 ovarian = tested on: OVCAR-8 ovarian
SK-MEL-28 melanoma = tested on: SK-MEL-28 melanoma
OVCAR-4 ovarian = tested on: OVCAR-4 ovarian
SW-620 colon = tested on: SW-620 colon
NCI-H522 lung = tested on: NCI-H522 lung

## COc1ccc(C(=O)/C=C/c2cc(C(F)(F)F)cc(C(F)(F)F)c2)cc1S(N)(=O)=O
SF-295 CNS
  GI50: 1700 nM
  TGI: 3100 nM
HS 578T breast
  GI50: 2680 nM
  TGI: 9860 nM
RPMI-8226 leukemia
  GI50: 558 nM
  TGI: > 100000 nM
HT29 colon
  GI50: 1260 nM
  TGI: 2770 nM
MALME-3M melanoma
  GI50: 1810 nM
  TGI: 3330 nM
NCI-H460 lung
  GI50: 1560 nM
  TGI: 3280 nM
MDA-MB-231 breast
  GI50: 1570 nM
  TGI: 3110 nM
LOX IMVI melanoma
  GI50: 573 nM
  TGI: 1780 nM
PC-3 prostate
  GI50: 2190 nM
  TGI: 5990 nM
SNB-75 CNS
  GI50: 1380 nM
  TGI: 3330 nM
EKVX NSCLC
  GI50: 1580 nM
  TGI: 2970 nM
UACC-62 melanoma
  GI50: 1510 nM
  TGI: 3000 nM
HCC-2998 colon
  GI50: 1540 nM
  TGI: 2870 nM
OVCAR-5 ovarian
  GI50: 1840 nM
  TGI: 3360 nM
KM12 colon
  GI50: 2070 nM
  TGI: 4920 nM
SNB-19 CNS
  GI50: 1600 nM
  TGI: 2980 nM
M14 melanoma
  GI50: 1920 nM
  TGI: 4850 nM
TK-10 renal
  GI50: 2050 nM
  TGI: 3860 nM
U251 CNS
  GI50: 1290 nM
  TGI: 2620 nM
SF-268 CNS
  GI50: 2380 nM
  TGI: 7480 nM
CCRF-CEM leukemia
  GI50: 299 nM
  TGI: > 100000 nM
ACHN renal
  GI50: 1540 nM
  TGI: 2910 nM
SK-MEL-5 melanoma
  GI50: 1730 nM
  TGI: 3150 nM
SF-539 CNS
  GI50: 1680 nM
  TGI: 3070 nM
NCI-H23 lung
  GI50: 1550 nM
  TGI: 3010 nM
MOLT-4 leukemia
  GI50: 1790 nM
  TGI: 9160 nM
MDA-MB-468 breast
  GI50: 1540 nM
  TGI: 2910 nM
NCI-H226 lung
  GI50: 2140 nM
  TGI: 4590 nM
RXF 393 renal
  GI50: 1760 nM
  TGI: 3340 nM
A498 renal
  GI50: 16900 nM
  TGI: 30500 nM
SR leukemia
  GI50: 498 nM
  TGI: > 100000 nM
HOP-62 NSCLC
  GI50: 2220 nM
  TGI: 4400 nM
MDA-MB-435
  GI50: 1350 nM
  TGI: 2970 nM
HCT-116 colon
  GI50: 655 nM
  TGI: 2300 nM
SK-OV-3 ovarian
  GI50: 3650 nM
  TGI: 16300 nM
786-0 renal
  GI50: 1640 nM
  TGI: 3320 nM
HCT-15 colon
  GI50: 893 nM
  TGI: 2380 nM
HOP-92 NSCLC
  GI50: 1980 nM
  TGI: 5800 nM
NCI/ADR-RES ovarian
  GI50: 1510 nM
  TGI: 3720 nM
IGROV1 ovarian
  GI50: 1740 nM
  TGI: 3320 nM
K-562 leukemia
  GI50: 788 nM
  TGI: > 100000 nM
DU-145 prostate
  GI50: 2050 nM
  TGI: 4830 nM
CAKI-1 renal
  GI50: 1580 nM
  TGI: 3360 nM
COLO 205 colon
  GI50: 2020 nM
  TGI: 3940 nM
SN12C renal
  GI50: 1470 nM
  TGI: 2860 nM
HL-60(TB) leukemia
  GI50: 1750 nM
  TGI: 6290 nM
BT-549 breast
  GI50: 2270 nM
  TGI: 3930 nM
A549 NSCLC
  GI50: 1830 nM
  TGI: 5640 nM
MCF7 breast
  GI50: 439 nM
  TGI: 1680 nM
UO-31 renal
  GI50: 1450 nM
  TGI: 2760 nM
T-47D breast
  GI50: 1690 nM
  TGI: 3550 nM
OVCAR-3 ovarian
  GI50: 1560 nM
  TGI: 3310 nM
SK-MEL-2 melanoma
  GI50: 1740 nM
  TGI: 3250 nM
UACC-257 melanoma
  GI50: 1510 nM
  TGI: 3180 nM
OVCAR-8 ovarian
  GI50: 1490 nM
  TGI: 3870 nM
SK-MEL-28 melanoma
  GI50: 1670 nM
  TGI: 3070 nM
OVCAR-4 ovarian
  GI50: 1850 nM
  TGI: 4440 nM
SW-620 colon
  GI50: 1030 nM
  TGI: 2440 nM
NCI-H522 lung
  GI50: 1560 nM
  TGI: 3240 nM
